According to patent publication US9233964B2, “Sulfamide piperazine derivatives as protein tyrosine kinase inhibitors and pharmaceutical use therof” (LEO PHARMA A/S, priority 2011, dated 2016):

Experiments:
Format in all cases: biochemical
TYK2 = biological target: T1, TYK2 (Homo sapiens, UniProt P29597); experiment: JAK kinase assay (HTRF, phosphorylation of synthetic peptide), TYK2; details: catalytic domain, ATP at Km (13 μM); read-out: TYK2 kinase inhibitory activity (EC50)
T1 construct: JAK1 (aa 850-1154) and TYK2 (aa 871-1187) are expressed with an N-terminally fused GST-tag; GST (N); purchased Carna Biosciences, Inc; host or cells: baculovirus expression system
T1 sequence (P29597 871-1187): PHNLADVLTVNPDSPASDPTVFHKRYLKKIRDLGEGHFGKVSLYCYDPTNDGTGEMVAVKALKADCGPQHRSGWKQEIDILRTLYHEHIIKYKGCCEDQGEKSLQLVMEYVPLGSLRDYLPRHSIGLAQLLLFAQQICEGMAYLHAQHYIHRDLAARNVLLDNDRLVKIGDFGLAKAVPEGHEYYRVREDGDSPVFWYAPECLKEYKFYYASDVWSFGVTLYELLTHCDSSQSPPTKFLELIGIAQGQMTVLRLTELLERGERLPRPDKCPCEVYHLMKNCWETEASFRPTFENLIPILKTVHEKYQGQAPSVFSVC
Procedure, shortened: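 1 µM biotinylated TK peptide at Km ATP in pH 7.0 Hepes, 20-30 min RT. EDTA stop; overnight streptavidin-XL665/cryptate HTRF read.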

JAK2 = biological target: T2, JAK2 (Homo sapiens, UniProt O60674); experiment: JAK kinase assay (HTRF, phosphorylation of synthetic peptide), JAK2; details: catalytic domain, ATP at Km (4 μM); read-out: JAK2 kinase inhibitory activity (EC50)
T2 construct: All four purified enzymes contain only the catalytic domain; His (N); purchased Carna Biosciences, Inc; host or cells: baculovirus expression system
Procedure, shortened: (§1)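 Catalytic-domain human JAK1 (GST-tagged, aa 850-1154) or His-tagged JAK2, baculovirus-expressed, phosphorylated 1 µM biotinylated TK peptide at Km ATP (JAK1 7 µM, 10 mM MgCl2, 50 nM SEB; JAK2 4 µM, 5 mM MgCl2) in pH 7.0 Hepes, 20-30 min RT. EDTA stop; overnight streptavidin-XL665/cryptate HTRF read.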

JAK1 = biological target: T3, JAK1 (Homo sapiens, UniProt P23458); experiment: JAK kinase assay (HTRF, phosphorylation of synthetic peptide), JAK1; details: catalytic domain, ATP at Km (7 μM); read-out: JAK1 kinase inhibitory activity (EC50)
T3 construct: JAK1 (aa 850-1154) and TYK2 (aa 871-1187) are expressed with an N-terminally fused GST-tag; GST (N); purchased Carna Biosciences, Inc; host or cells: baculovirus expression system
Procedure, shortened: as §1

JAK3 = biological target: T4, JAK3 (Homo sapiens, UniProt P52333); experiment: JAK kinase assay (HTRF, phosphorylation of synthetic peptide), JAK3; details: catalytic domain, ATP at Km (2 μM); read-out: JAK3 kinase inhibitory activity (EC50)
T4 construct: All four purified enzymes contain only the catalytic domain; His (N); purchased Carna Biosciences, Inc; host or cells: baculovirus expression system
T4 sequence (P52333 822-1111 limits assumed): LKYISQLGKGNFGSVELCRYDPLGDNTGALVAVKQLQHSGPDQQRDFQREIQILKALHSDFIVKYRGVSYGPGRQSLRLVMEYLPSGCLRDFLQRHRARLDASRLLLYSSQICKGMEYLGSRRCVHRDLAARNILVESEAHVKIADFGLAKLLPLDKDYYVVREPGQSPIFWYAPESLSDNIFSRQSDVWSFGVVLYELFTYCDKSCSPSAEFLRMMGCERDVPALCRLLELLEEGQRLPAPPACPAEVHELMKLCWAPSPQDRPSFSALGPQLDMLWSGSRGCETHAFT

T2 sequence (O60674 849-1124 limits assumed): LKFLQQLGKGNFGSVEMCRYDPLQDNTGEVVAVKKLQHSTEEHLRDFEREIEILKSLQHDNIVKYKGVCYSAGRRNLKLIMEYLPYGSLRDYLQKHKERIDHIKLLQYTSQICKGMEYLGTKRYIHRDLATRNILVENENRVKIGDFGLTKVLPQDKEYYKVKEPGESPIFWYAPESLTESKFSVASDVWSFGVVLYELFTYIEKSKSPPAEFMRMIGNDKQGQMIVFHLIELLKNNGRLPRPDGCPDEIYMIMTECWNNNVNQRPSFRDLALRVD
T3 sequence (P23458 850-1154): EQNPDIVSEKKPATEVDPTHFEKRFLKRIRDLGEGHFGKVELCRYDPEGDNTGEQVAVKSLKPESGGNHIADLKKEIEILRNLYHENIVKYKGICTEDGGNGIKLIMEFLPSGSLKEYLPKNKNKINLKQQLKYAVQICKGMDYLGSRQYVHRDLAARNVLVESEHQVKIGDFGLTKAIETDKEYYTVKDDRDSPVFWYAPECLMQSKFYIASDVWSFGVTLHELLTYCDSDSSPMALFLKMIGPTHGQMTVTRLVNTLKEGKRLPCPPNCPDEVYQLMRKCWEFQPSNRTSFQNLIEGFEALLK

| EC50 (TYK2) | EC50 (JAK2) | EC50 (JAK1) | EC50 (JAK3) | Compound |
| --- | --- | --- | --- | --- |
| < 0.1 µM | < 0.1 µM | < 0.1 µM | < 0.1 µM | CN(CC1CCCC1)S(=O)(=O)N1CCN(c2ncnc3[nH]ccc23)CC12CC2 [Example 73, N-(cyclopentylmethyl)-N-methyl-5-(7H-pyrrolo[2,3-d]pyrimidin-4-yl)-5,8-diazaspiro[2.5]octane-8-sulfonamide] |
| 0.1 to 0.5 µM | < 0.1 µM | < 0.1 µM | < 0.1 µM | C=C1CCC(CN(C)S(=O)(=O)N2CCN(c3ncnc4[nH]ccc34)CC23CC3)CC1 [Example 87, N-methyl-N-[(4-methylenecyclohexyl)methyl]-5-(7H-pyrrolo[2,3-d]pyrimidin-4-yl)-5,8-diazaspiro[2.5]octane-8-sulfonamide] |
| < 0.1 µM | < 0.1 µM | < 0.1 µM | < 0.1 µM | CN(C[C@@H]1CC(F)(F)CN1S(C)(=O)=O)S(=O)(=O)N1CCN(c2ncnc3[nH]ccc23)CC12CC2 [Example 162, N-[[(2S)-4,4-difluoro-1-methylsulfonyl-pyrrolidin-2-yl]methyl]-N-methyl-5-(7H-pyrrolo[2,3-d]pyrimidin-4-yl)-5,8-diazaspiro[2.5]octane-8-sulfonamide] |
| 0.1 to 0.5 µM | < 0.1 µM | < 0.1 µM | 0.1 to 0.5 µM | CN(Cc1ccccc1F)S(=O)(=O)N1CCN(c2ncnc3[nH]ccc23)CC12CC2 [Example 77, N-[(2-fluorophenyl)methyl]-N-methyl-5-(7H-pyrrolo[2,3-d]pyrimidin-4-yl)-5,8-diazaspiro[2.5]octane-8-sulfonamide] |
| > 0.5 µM | 0.1 to 0.5 µM | > 0.5 µM | > 0.5 µM | O=S(=O)(N(CCCc1ccccc1)CCc1ccccc1)N1CCN(c2ncnc3[nH]ccc23)CC12CC2 [Example 9, 7-(7H-Pyrrolo[2,3-d]pyrimidin-4-yl)-4,7-diaza-spiro[2.5]octane-4-sulfonic acid phenethyl-(3-phenyl-propyl)-amide] |
| 0.1 to 0.5 µM | < 0.1 µM | < 0.1 µM | < 0.1 µM | N#CCCCN(CCO)S(=O)(=O)N1CCN(c2ncnc3[nH]ccc23)CC12CC2 [Example 110, N-(3-cyanopropyl)-N-(2-hydroxyethyl)-5-(7H-pyrrolo[2,3-d]pyrimidin-4-yl)-5,8-diazaspiro[2.5]octane-8-sulfonamide] |
| 0.1 to 0.5 µM | < 0.1 µM | < 0.1 µM | < 0.1 µM | CN(Cc1cccc(F)c1)S(=O)(=O)N1CCN(c2ncnc3[nH]ccc23)CC12CC2 [Example 78, N-[(3-fluorophenyl)methyl]-N-methyl-5-(7H-pyrrolo[2,3-d]pyrimidin-4-yl)-5,8-diazaspiro[2.5]octane-8-sulfonamide] |
| > 0.5 µM | < 0.1 µM | < 0.1 µM | 0.1 to 0.5 µM | CCC(=O)N1CCC(CN(C)S(=O)(=O)N2CCN(c3ncnc4[nH]ccc34)CC23CC3)C1 (centres unmarked) [Example 125, N-methyl-N-[(1-propanoylpyrrolidin-3-yl)methyl]-5-(7H-pyrrolo[2,3-d]pyrimidin-4-yl)-5,8-diazaspiro[2.5]octane-8-sulfonamide] |
| < 0.1 µM | < 0.1 µM | < 0.1 µM | 0.1 to 0.5 µM | CN(Cc1ccccc1C#N)S(=O)(=O)N1CCN(c2ncnc3[nH]ccc23)CC12CC2 [Example 14, 7-(7H-Pyrrolo[2,3-d]pyrimidin-4-yl)-4,7-diaza-spiro[2.5]octane-4-sulfonic acid (2-cyano-benzyl)-methyl-amide] |
| 0.1 to 0.5 µM | < 0.1 µM | < 0.1 µM | < 0.1 µM | CN(Cc1ccc(C#N)cc1)S(=O)(=O)N1CCN(c2ncnc3[nH]ccc23)CC12CC2 [Example 37, 7-(7H-Pyrrolo[2,3-d]pyrimidin-4-yl)-4,7-diaza-spiro[2.5]octane-4-sulfonic acid (4-cyano-benzyl)-methyl-amide] |
| > 0.5 µM | < 0.1 µM | < 0.1 µM | < 0.1 µM | O=S1(=O)CCC(CNS(=O)(=O)N2CCN(c3ncnc4[nH]ccc34)CC23CC3)CC1 [Int 38] |
| > 0.5 µM | < 0.1 µM | < 0.1 µM | 0.1 to 0.5 µM | O=S(=O)(N(CCc1ccccc1)CC1CCCCO1)N1CCN(c2ncnc3[nH]ccc23)CC12CC2 (centres unmarked) [Example 21, 7-(7H-Pyrrolo[2,3-d]pyrimidin-4-yl)-4,7-diaza-spiro[2.5]octane-4-sulfonic acid phenethyl-(tetrahydro-pyran-2-ylmethyl)-amide] |
| 0.1 to 0.5 µM | < 0.1 µM | < 0.1 µM | < 0.1 µM | CN(CCC1CCS(=O)(=O)C1)S(=O)(=O)N1CCN(c2ncnc3[nH]ccc23)CC12CC2 (centres unmarked) [Example 75, N-[2-(1,1-dioxothiolan-3-yl)ethyl]-N-methyl-5-(7H-pyrrolo[2,3-d]pyrimidin-4-yl)-5,8-diazaspiro[2.5]octane-8-sulfonamide] |
| 0.1 to 0.5 µM | < 0.1 µM | < 0.1 µM | < 0.1 µM | O=S(=O)(N(CCOc1ccccc1)C1COC1)N1CCN(c2ncnc3[nH]ccc23)CC12CC2 [Example 115, N-(oxetan-3-yl)-N-(2-phenoxyethyl)-5-(7H-pyrrolo[2,3-d]pyrimidin-4-yl)-5,8-diazaspiro[2.5]octane-8-sulfonamide] |
| < 0.1 µM | < 0.1 µM | < 0.1 µM | < 0.1 µM | CN(CC1CC(F)(F)CN1)S(=O)(=O)N1CCN(c2ncnc3[nH]ccc23)CC12CC2 (centres unmarked) [Int 28] |
| > 0.5 µM | 0.1 to 0.5 µM | 0.1 to 0.5 µM | > 0.5 µM | CC(C)(C)OC(=O)N(CCCS(C)(=O)=O)S(=O)(=O)N1CCN(c2ncnc3[nH]ccc23)CC12CC2 [Example 196, tert-butyl N-(3-methylsulfonylpropyl)-N-[[5-(7H-pyrrolo[2,3-d]pyrimidin-4-yl)-5,8-diazaspiro[2.5]octan-8-yl]sulfonyl]carbamate] |
| 0.1 to 0.5 µM | < 0.1 µM | < 0.1 µM | < 0.1 µM | CN(CC1CCN(S(=O)(=O)CCCC#N)C1)S(=O)(=O)N1CCN(c2ncnc3[nH]ccc23)CC12CC2 (centres unmarked) [Example 121, N-[[1-(3-cyanopropylsulfonyl)pyrrolidin-3-yl]methyl]-N-methyl-5-(7H-pyrrolo[2,3-d]pyrimidin-4-yl)-5,8-diazaspiro[2.5]octane-8-sulfonamide] |
| > 0.5 µM | 0.1 to 0.5 µM | 0.1 to 0.5 µM | > 0.5 µM | O=S(=O)(N(CCc1ccccc1)CCc1ccc(F)cc1)N1CCN(c2ncnc3[nH]ccc23)CC12CC2 [Example 47, 7-(7H-Pyrrolo[2,3-d]pyrimidin-4-yl)-4,7-diaza-spiro[2.5]octane-4-sulfonic acid [2-(4-fluoro-phenyl)-ethyl]-phenethyl-amide] |
| 0.1 to 0.5 µM | < 0.1 µM | < 0.1 µM | < 0.1 µM | CN(Cc1cccc(C#N)c1)S(=O)(=O)N1CCN(c2ncnc3[nH]ccc23)CC12CC2 [Example 13, 7-(7H-Pyrrolo[2,3-d]pyrimidin-4-yl)-4,7-diaza-spiro[2.5]octane-4-sulfonic acid (3-cyano-benzyl)-methyl-amide] |
| > 0.5 µM | 0.1 to 0.5 µM | 0.1 to 0.5 µM | > 0.5 µM | COc1ccc(CNS(=O)(=O)N2CCN(c3ncnc4[nH]ccc34)CC23CC3)cc1 [Example 195, N-[(4-methoxyphenyl)methyl]-5-(7H-pyrrolo[2,3-d]pyrimidin-4-yl)-5,8-diazaspiro[2.5]octane-8-sulfonamide] |
